Several values for one entry are separate records, joined by “and”; a condition that tells them apart may be missing. Identical values can stand only once.
Settings: Liquid, Ebulliometric method (Recirculating still)

NCCO [2-aminoethan-1-ol]
Settings | vapor or sublimation pressure [kPa]
357.46 K | 2.98
362.99 K | 3.98
369.33 K | 5.48
374.29 K | 6.98
378.41 K | 8.47
384.07 K | 10.97
391.14 K | 14.96
398.01 K | 19.97
403.43 K | 24.97
408.19 K | 29.97
415.78 K | 39.98
415.81 K | 39.95
424.61 K | 54.95
429.44 K | 64.95
431.61 K | 69.95
435.61 K | 79.95

CNCCCN [N-methyl-1,3-diaminopropane]
Settings | vapor or sublimation pressure [kPa]
326.81 K | 3.46
331.62 K | 4.47
337.36 K | 5.97
343.91 K | 7.97
353.78 K | 12.48
365.76 K | 20.47
372.77 K | 27.96
383.53 K | 39.97
397.99 K | 64.98
404.7 K | 79.98
412.5 K | 101.27

CN(CCO)CCO [N-methyldiethanolamine]
Settings | vapor or sublimation pressure [kPa]
409.69 K | 2.48
413.43 K | 2.98
416.72 K | 3.48
421.96 K | 4.48
426.65 K | 5.48
430.48 K | 6.48
435.5 K | 7.98

O [water]
Settings | vapor or sublimation pressure
311.63 K | 6.78 kPa
313.24 K | 7.38 kPa
314.99 K | 8.11 kPa
323.11 K | 12.28 kPa
323.14 K | 12.28 kPa
323.15 K | 12.27 kPa
325.47 K | 13.78 kPa
325.61 K | 13.8 kPa
332.76 K | 19.84 kPa
332.85 K | 19.84 kPa
333.13 K | 19.58 kPa
333.17 K | 19.88 kPa and 19.88 kPa
333.18 K | 19.88 kPa and 19.88 kPa
333.19 K | 19.87 kPa
340.41 K | 27.6 kPa
340.44 K | 27.58 kPa
340.47 K | 27.6 kPa
348.8 K | 39.83 kPa
348.84 K | 39.83 kPa
349.91 K | 41.4 kPa
349.94 K | 41.39 kPa
349.97 K | 41.4 kPa
353.14 K | 47.18 kPa and 47.19 kPa
353.15 K | 47.18 kPa
357.02 K | 55.17 kPa
357.07 K | 55.18 kPa
357.08 K | 55.17 kPa
358.87 K | 59.88 kPa
358.92 K | 59.88 kPa
362.55 K | 68.92 kPa
362.59 K | 68.92 kPa
362.8 K | 69 kPa
362.83 K | 69 kPa and 68.98 kPa
362.89 K | 69.83 kPa
362.93 K | 69.83 kPa
367.48 K | 82.79 kPa
367.49 K | 82.79 kPa
367.67 K | 82.79 kPa
367.69 K | 82.79 kPa and 82.78 kPa
371.67 K | 96.51 kPa
371.7 K | 96.51 kPa
371.9 K | 96.47 kPa
371.91 K | 96.58 kPa
372.69 K | 99.28 kPa
372.86 K | 100.59 kPa
372.89 K | 100.59 kPa
373.16 K | 100.98 kPa and 100.98 kPa
